Assay results reported in PubChem BioAssay (NCI).
Where “and” joins values, the source holds several entries; their conditions need not be identical. Identical values can stand only once.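 A five-concentration, 48-hour dose response in 96-well plates underlies each endpoint, interpolated linearly between surrounding concentrations. GI50: concentration for 50% inhibition of growth. TGI: total growth inhibition.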

Columns and labels:
Assay in all cases: NCI anticancer screen, dose series, 48 h
SW-620 colon = tested on: SW-620 colon
EKVX NSCLC = tested on: EKVX NSCLC
CCRF-CEM leukemia = tested on: CCRF-CEM leukemia
HL-60(TB) leukemia = tested on: HL-60(TB) leukemia
NCI-H460 lung = tested on: NCI-H460 lung
PC-3 prostate = tested on: PC-3 prostate
786-0 renal = tested on: 786-0 renal
RXF 393 renal = tested on: RXF 393 renal
NCI-H226 lung = tested on: NCI-H226 lung
KM12 colon = tested on: KM12 colon

SMILES | GI50 (SW-620 colon) | TGI (SW-620 colon) | GI50 (EKVX NSCLC) | TGI (EKVX NSCLC) | GI50 (CCRF-CEM leukemia) | TGI (CCRF-CEM leukemia) | GI50 (HL-60(TB) leukemia) | TGI (HL-60(TB) leukemia) | GI50 (NCI-H460 lung) | TGI (NCI-H460 lung) | GI50 (PC-3 prostate) | TGI (PC-3 prostate) | GI50 (786-0 renal) | TGI (786-0 renal) | GI50 (RXF 393 renal) | TGI (RXF 393 renal) | GI50 (NCI-H226 lung) | TGI (NCI-H226 lung) | GI50 (KM12 colon) | TGI (KM12 colon)
CCC(=O)Nc1ccccc1C#C/C=C\C#Cc1ccccc1C(F)(F)F | 1.73 µM | > 24.4 µM | 1.06 µM | 25.2 µM | 2.4 µM | > 20 µM | 1.18 µM | > 10.4 µM | 1.63 µM | 5.88 µM | 4.08 µM | > 50 µM | 2.37 µM | 23.2 µM | 2.84 µM | > 12.7 µM | 6.91 µM | > 50 µM | 2.02 µM | > 26.5 µM
Cc1cc(C(=O)NC(CCC(=O)O)C(=O)O)sc1CCC1CNc2nc(N)[nH]c(=O)c2C1 (stereo not drawn) | < 0.0174 µM and 0.0255 µM | > 100 µM | – | – | 0.0123 µM and 0.0273 µM | > 100 µM | 0.0366 µM and 0.0558 µM | > 100 µM | < 0.0186 µM and 0.0404 µM | > 100 µM | < 0.01 µM | > 100 µM | < 0.01 µM | > 100 µM | 0.015 µM and < 0.0158 µM | > 100 µM | < 0.0128 µM | > 100 µM | 0.0383 µM and 0.0937 µM | > 100 µM
COc1cc(N2CCN(C(C)C)CC2)ccc1Nc1nc(Nc2cccc(F)c2C(=O)O)c2cc[nH]c2n1 | > 25 µM | > 25 µM | > 25 µM | > 25 µM | > 25 µM | > 25 µM | > 25 µM | > 25 µM | > 25 µM | > 25 µM | > 25 µM | > 25 µM | > 25 µM | > 25 µM | > 25 µM | > 25 µM | > 25 µM | > 25 µM | > 25 µM | > 25 µM
COc1cc2ncnc(Nc3ccc4c(cnn4Cc4ccccc4)c3)c2cc1OC | > 25 µM | > 25 µM | 0.0796 µM | > 25 µM | > 18.1 µM | > 25 µM | 12.5 µM | > 21 µM | > 25 µM | > 25 µM | > 18.2 µM | > 25 µM | 16.7 µM | > 25 µM | 8.92 µM | > 25 µM | > 25 µM | > 25 µM | 18.7 µM | > 25 µM
Cc1[nH]c(-c2nc3ccccc3[nH]2)c(C)c1C(=O)NC(C)C1CCCCC1 (stereo not drawn) | 4.95 µM | 18.3 µM | 11.4 µM | 23.7 µM | 5.49 µM | 21.4 µM | 3.36 µM | 13.1 µM | 14.4 µM | 32 µM | 12 µM | 28.4 µM | 14.8 µM | 32.2 µM | 3.17 µM | 11 µM | 13.9 µM | 37.3 µM | 10.2 µM | 22.8 µM
O=c1c(Br)cc2c(-c3ccccc3)c3cc(Br)c(O)c(Br)c3oc-2c1Br | – | > 100 µM | – | > 100 µM | – | > 100 µM | – | > 100 µM | – | > 100 µM | – | > 100 µM | – | > 100 µM | – | > 100 µM | – | > 100 µM | – | > 100 µM
CCCCNC(=O)c1cc(NCc2cc(O)ccc2O)ccc1O | 18.9 µM | 43.4 µM | 13.4 µM | 28.1 µM | 0.873 µM | 12.8 µM | 2.06 µM | 6.2 µM | 47.3 µM | > 100 µM | 10.3 µM | 27.4 µM | 10.8 µM | 23.2 µM | 8.53 µM | 21.4 µM | – | – | 14.4 µM | 57.7 µM
C=CC/C(=C\COP(=O)(OCc1ccc([N+](=O)[O-])o1)N(C)CCCCCl)CC/C=C(\C)CCC=C(C)C (stereo not drawn) | 9.44 µM | 21.3 µM | 18.9 µM | 35.7 µM | 0.0483 µM | 15.9 µM | 21.9 µM | > 100 µM | 2.56 µM | 15.1 µM | 12 µM | 24.3 µM | 13.2 µM | 25.9 µM | 12.4 µM | 24.9 µM | – | – | 9.94 µM | > 100 µM
N#Cc1c(N)nc(N)nc1N[C@H](c1nc2c(F)ccc(Cl)c2c(=O)n1-c1cccnc1)C1CC1 | 11.1 µM | > 100 µM | 1.88 µM | 37.2 µM | 7.35 µM | 95.1 µM | 2.28 µM | 82.8 µM | 4.95 µM | > 100 µM | 2.3 µM | 29.3 µM | 0.363 µM | 14.5 µM | 0.32 µM | 3.46 µM | 15.5 µM | > 100 µM | 14.4 µM | 34.5 µM
CN(C)CC(C(=O)Cc1ccccc1)c1ccccc1 (stereo not drawn) | 1.79 µM | 3.59 µM | 17 µM | 40.5 µM | – | – | 1.83 µM | 5.75 µM | 4.24 µM | 14.8 µM | 7.53 µM | 22.4 µM | 2.18 µM | 4.51 µM | 2.39 µM | 4.86 µM | 13.8 µM | 38.3 µM | 1.07 µM | 2.49 µM
CCc1cc2ncc(CN3CCN(c4ccc(C(=O)NC)nc4)CC3)cc2[nH]c1=O | > 100 µM | > 100 µM | 84.9 µM | > 100 µM | 97.1 µM | > 100 µM | 32.1 µM | > 100 µM | 33.5 µM | > 100 µM | 51.7 µM | > 100 µM | 79.6 µM | > 100 µM | 17 µM | > 100 µM | 14.7 µM | > 100 µM | > 100 µM | > 100 µM
CCN(CC)CCN(Cc1ccc(F)cc1)c1ccc(CO)c(Cl)c1 | 31.5 µM | > 100 µM | – | – | 61.7 µM | > 100 µM | 23.1 µM | > 58.5 µM | 1.17 µM | 3.97 µM | 13.2 µM | > 92.3 µM | 30.2 µM | > 100 µM | 31.2 µM | > 69.3 µM | 0.235 µM | 0.713 µM | 18.8 µM | 75.9 µM
C=C(CC(=O)O)C(=O)O (tested in a mixture with another compound) | > 50 µg/mL | > 50 µg/mL | 40.6 µg/mL | > 50 µg/mL | – | – | 8.94 µg/mL | 17.2 µg/mL | > 50 µg/mL | > 50 µg/mL | > 50 µg/mL | > 50 µg/mL | > 50 µg/mL | > 50 µg/mL | 10.2 µg/mL | > 50 µg/mL | > 50 µg/mL | > 50 µg/mL | > 50 µg/mL | > 50 µg/mL
